Consider 2 molecules from patent US6677431B2, “Design, preparation, and properties of antibacterial β-peptides” (The Trustees of the University of Pennsylvania, priority 1999, dated 2004).

The nature of data set [1]: Hemolysis assay, 50% lysis of RBC's. It counts as cell-based, human. The following applies: human, 0.25% suspension of human erythrocytes (RBCs). The procedure: (§1) The biological activities of these peptides were measured using human erythrocytes and E. coli as models for mammalian and bacterial cells, respectively. Hemolysis was monitored in 10 mM Tris, 150 mM NaCl, pH 7.0, while the bacterial assay was conducted in minimal media M9 (Table 1); both of these solutions are sufficiently transparent to allow CD and ultracentrifugation measurements (supplementary material). Under the assay conditions, the peptides gave CD spectra similar to those in Tris buffer, with the exception of H-(β^3-HLeu-β^3-HLys-β^3-HLeu)n-OH, n=5 and 6.
(§2) ∇in M9 medium (data from Hamuro et al., ref. 5) # In M9 medium.+Hemolysis experiments were performed by incubating a 0.25% suspension of human RBc's in 10 mM Tris buffer containing […] at pH 7.0 with varying amounts of peptide. The hemolytic dose required to lyse 50% of the RBC's is reported as the HD50.
(§3) Hemolysis experiments were carried out by incubating 0.25% suspension of human erythrocytes (RBC's) with peptides of different concentrations in 150 mM sodium choloride, 10 mM Tris buffer, pH 7.0. The sample was prepared by combining 400 μL of the RBC suspension and […] of the peptide solution. After incubated the sample at 37— C. for 1 hour, the sample was centrifuged at 14,000 rpm for 5 min, and the OD414 of the supernatant was measured. Mellitin (50 μM) was used to get 100% hemolysis. The hemolytic IC50 was obtained by plotting hemolysis percentage vis. peptide concentration, and the concentration required for 50% hemolysis was determined from the smooth curve-fitted graph.
(§4) The activity and selectivity of peptide 1 and peptide 2 were examined by antibacterial assay and hemolysis experiments. E. Coli and human erythrotytes (RBC) were used as models for bacterial cell and mammalian cell, respectively. The peptide concentration required for 50% bacterial growth suppression (IC50), and peptide concentration required for 50% RBC lysis (HD50) are listed in Table 3. […] The antibacterial activities of peptide 1 and peptide 2 are about the same except peptide 2 has slightly lower IC50. Similar trend has been observed in the previous study, that longer peptide tends to have higher activity. However, the difference in IC50 is much smaller for this series of peptide than the previously studied ones. Antibacterial peptide with good selectivity is usually represented by its low hemolysis ability. […] The HD50 is 670 μM for peptide 1 and 240 μM for peptide 2, which gives a selectivity of 111 for peptide 1 and 60 for peptide 2.

The test system of data set [2] is human erythrocytes (RBC's). As to the kind of experiment: Hemolysis assay, 50% lysis of RBC's. It counts as cell-based. As to the method: as §1, §2, §3, §4
Data set [3] is described as follows: Peptide binding to phospholipid bilayers by CD, SOPC vesicles. The following applies: for helix formation on phosphocholin vesicles (POPC and SOPC): CD, model of mammalian cell membrane.
Data set [4] can be described thus: Peptide-induced leakage of liposomal contents (calcein release). The procedure: The leakage of liposome contents to the external media was monitored by the release of calcein encapsulated in vesicles. The vesicle was prepared by reverse-phase evaporation in 10 mM sodium phosphate buffer, pH 7, followed by single extrusion through one 0.2 μm pore size polycarbonate filter. The non trapped calcein was removed by eluting through a size exclusion Sephadex G-25 column, with 90 mM sodium chloride, 10 mM sodium phosphate, pH 7. The leaking kinetics was monitored by follow the increase of calcein fluorescence intensity at 520 nm (excitation at 490 nm) due to release of self-quenching. The experiment was carried out on a Hitachi F-2500 Fluoresence spectrophotometer, with a slit width of […]. The initial rate was calculated from the linear part of the %leakage vs. time curve.
The mechanism of how the antibacterial peptides work is still on debate. However, it is generally believed they kill the cell by disturbing cell membranes. The experiment of peptide-induced leakage of liposomal contents is a direct way to monitor this process. Large unilammilar vesicles (LUV) of SOPS/SOPC (1:9) were used in the binding study. The leakage of encapsulated calcein was detected by its fluorescence at 515 nm. The fraction of bound lipid at different peptide concentration was calculated and overlaid in FIG. 4 as well. The lysis abilities of the two peptides are similar at low peptide concentration, and become quite different with increasing amount of peptide. […] With increase of peptide concentration, the leakage percentage increases quickly. For peptide 2, the leakage percentage jumps to 100% within the range between 0.05 μM and 0.14 μM where the corresponding fractions of lipid bound are about 10% 40%, respectively. […] The percentage of leakage increases to about 80% when the peptide concentration reaches 0.5 μM. The lysis ability stays at a plateau until the peptide concentration is pushed up to 2 μM, when about 60% of lipid molecules are bound to peptide molecules. […] The difference between the two peptides is even more obvious when looking at the leakage rate right after the addition of peptide to the vesicle solution, as shown in FIG. 3. The initial leakage rate for peptide 2 increases sharply when the peptide concentration increases from 0.14 μM to 0.19 μM. […] For peptide 1, the leakage initial rate increases in a continuous fashion, and 100% leakage is not complete until 300 s with 5.18 μM peptide.

For orientation: HC50 means the concentration that lyses half of the red blood cells. For `CC(C)[C@@H](CC(N)=O)NC(=O)C[C@H](CCCCN)NC(=O)C[C@H](C)NC(=O)C[C@@H](NC(=O)C[C@H](CCCCN)NC(=O)C[C@H](C)NC(=O)C[C@@H](NC(=O)C[C@H](CCCCN)NC(=O)C[C@H](C)NC(=O)C[C@@H](NC(=O)C[C@H](CCCCN)NC(=O)C[C@H](C)N)C(C)C)C(C)C)C(C)C` [Peptide 1], the HC50 at 1 h in data set [1] (pH 7) is 670 µM. In data set [2], the HC50 was 670 µM and the HD50 is 670 µM. Further, the “helix formation on phosphocholin vesicles (POPC and SOPC)” value in data set [3] is given as “does not show any formation of helix”. Also, the “time to 100% leakage” value in data set [4] (5.18 μM peptide) is 300 s. The “lysis of the vesicle” value in data set [4] (at 285 seconds, 5 μM peptide) is “Complete lysis”. The percentage of leakage result in data set [4] (at 285 seconds, peptide 0.5 μM) is reported as “about 80%”.

As usually defined, the Kd is a measure of binding affinity in units of concentration. Higher therefore signals lower affinity. In data set [1], `CC(C)[C@@H](CC(N)=O)NC(=O)C[C@H](CCCCN)NC(=O)C[C@H](C)NC(=O)C[C@@H](NC(=O)C[C@H](CCCCN)NC(=O)C[C@H](C)NC(=O)C[C@@H](NC(=O)C[C@H](CCCCN)NC(=O)C[C@H](C)NC(=O)C[C@@H](NC(=O)C[C@H](CCCCN)NC(=O)C[C@H](C)NC(=O)C[C@@H](NC(=O)C[C@H](CCCCN)NC(=O)C[C@H](C)N)C(C)C)C(C)C)C(C)C)C(C)C` [Peptide 2] registered an HC50 at 1 h of 240 µM. In data set [2], the HC50 was 240 µM and the HD50 was 240 µM. In addition, in data set [3], the “helix formation on phosphocholin vesicles (POPC and SOPC)” value was “shows increase of helix content”. The Kd in data set [3] (SOPC LUV) came to 15 µM. Besides, the percentage of leakage in data set [4] (at 285 seconds, peptide between 0.05 μM and 0.14 μM) is listed as 100%. Besides, in data set [4] (peptide concentration higher than 0.5 μM), the “time to complete lysis of the vesicle” value is given as at most 20 s.
